Laboratory results as given in patent US20220274954A1, “SUBSTITUTED N-PHENYL-N-AMINOUARCILS AND SALTS THEREOF AND USE THEREOF AS HERBICIDAL AGENTS” (Bayer Aktiengesellschaft, priority 2019, published 2022).

Experiments:
Format in all cases: in vivo
Triticum aestivum = experiment: Post-emergence crop plant compatibility; details: application rate 1.25 g/ha
Description: (§1) Seeds of monocotyledonous and dicotyledonous weeds and crop plants were placed in sandy loam in plastic or wood-fiber pots, covered with soil and cultivated in a greenhouse under controlled growth conditions. 2 to 3 weeks after sowing, the test plants were treated at the one-leaf stage. The compounds of the invention, formulated in the form of wettable powders (WP) or as emulsion concentrates (EC), were then sprayed onto the green parts of the plants as aqueous suspension or emulsion with addition of 0.5% additive at a water application rate of […] (converted). After the test plants had been kept in the greenhouse under optimum growth conditions for about 3 weeks, the activity of the preparations was rated visually in comparison to untreated controls. For example, 100% activity=the plants have died, 0% activity=like control plants.
(§2) Here, the observed effects on selected crop plants are stated in comparison to the untreated controls (values in %).

Oryza sativa = experiment: Post-emergence crop plant compatibility
Description: as §1, §2

Zea mays = experiment: Post-emergence crop plant compatibility; details: application rate 1.25 g/ha
Description: as §1, §2

Alopecurus myosuroides = experiment: Post-emergence herbicidal action
Description: as §1, with “plants. Tables A1 to A14 below show the effects of selected compounds of the general formula (I) according to Tables I.1 to I.34 on various harmful plants and at an application rate corresponding to 20 g/ha and less, which were obtained by the experimental procedure mentioned above.” for “plants.”

Amaranthus retroflexus = experiment: Post-emergence herbicidal action
Description: as §1, with “plants. Tables A1 to A14 below show the effects of selected compounds of the general formula (I) according to Tables I.1 to I.34 on various harmful plants and at an application rate corresponding to 20 g/ha and less, which were obtained by the experimental procedure mentioned above.” for “plants.”

Setaria viridis = experiment: Post-emergence herbicidal action; details: 504 h, read-out: Setaria viridis (efficacy in %)
Description: as §1, with “plants. Tables A1 to A14 below show the effects of selected compounds of the general formula (I) according to Tables I.1 to I.34 on various harmful plants and at an application rate corresponding to 20 g/ha and less, which were obtained by the experimental procedure mentioned above.” for “plants.”

Polygonum convolvulus = experiment: Post-emergence herbicidal action; details: Fallopia convolvulus, 504 h, read-out: Polygonum convolvulus (efficacy in %)
Description: as §1, with “plants. Tables A1 to A14 below show the effects of selected compounds of the general formula (I) according to Tables I.1 to I.34 on various harmful plants and at an application rate corresponding to 20 g/ha and less, which were obtained by the experimental procedure mentioned above.” for “plants.”

Avena fatua = experiment: Post-emergence herbicidal action; details: application rate 20 g/ha
Description: as §1, with “plants. Tables A1 to A14 below show the effects of selected compounds of the general formula (I) according to Tables I.1 to I.34 on various harmful plants and at an application rate corresponding to 20 g/ha and less, which were obtained by the experimental procedure mentioned above.” for “plants.”

Veronica persica = experiment: Post-emergence herbicidal action
Description: as §1, with “plants. Tables A1 to A14 below show the effects of selected compounds of the general formula (I) according to Tables I.1 to I.34 on various harmful plants and at an application rate corresponding to 20 g/ha and less, which were obtained by the experimental procedure mentioned above.” for “plants.”

Digitaria sanguinalis = experiment: Post-emergence herbicidal action; details: 504 h, read-out: Digitaria sanguinalis (efficacy in %)
Description: as §1, with “plants. Tables A1 to A14 below show the effects of selected compounds of the general formula (I) according to Tables I.1 to I.34 on various harmful plants and at an application rate corresponding to 20 g/ha and less, which were obtained by the experimental procedure mentioned above.” for “plants.”

Echinochloa crus-galli = experiment: Post-emergence herbicidal action
Description: as §1, with “plants. Tables A1 to A14 below show the effects of selected compounds of the general formula (I) according to Tables I.1 to I.34 on various harmful plants and at an application rate corresponding to 20 g/ha and less, which were obtained by the experimental procedure mentioned above.” for “plants.”

Pharbitis purpurea = experiment: Post-emergence herbicidal action
Description: as §1, with “plants. Tables A1 to A14 below show the effects of selected compounds of the general formula (I) according to Tables I.1 to I.34 on various harmful plants and at an application rate corresponding to 20 g/ha and less, which were obtained by the experimental procedure mentioned above.” for “plants.”

Matricaria inodora = experiment: Post-emergence herbicidal action
Description: as §1, with “plants. Tables A1 to A14 below show the effects of selected compounds of the general formula (I) according to Tables I.1 to I.34 on various harmful plants and at an application rate corresponding to 20 g/ha and less, which were obtained by the experimental procedure mentioned above.” for “plants.”

Viola tricolor = experiment: Post-emergence herbicidal action
Description: as §1, with “plants. Tables A1 to A14 below show the effects of selected compounds of the general formula (I) according to Tables I.1 to I.34 on various harmful plants and at an application rate corresponding to 20 g/ha and less, which were obtained by the experimental procedure mentioned above.” for “plants.”

Abutilon theophrasti = experiment: Post-emergence herbicidal action
Description: as §1, with “plants. Tables A1 to A14 below show the effects of selected compounds of the general formula (I) according to Tables I.1 to I.34 on various harmful plants and at an application rate corresponding to 20 g/ha and less, which were obtained by the experimental procedure mentioned above.” for “plants.”

Lolium rigidum = experiment: Post-emergence herbicidal action; details: application rate 20 g/ha
Description: as §1, with “plants. Tables A1 to A14 below show the effects of selected compounds of the general formula (I) according to Tables I.1 to I.34 on various harmful plants and at an application rate corresponding to 20 g/ha and less, which were obtained by the experimental procedure mentioned above.” for “plants.”

Nn1c(C(F)(F)F)cc(=O)n(-c2cc(Sc3cccnc3OCC(=O)OCc3ccccc3)c(Cl)cc2F)c1=O [I.1-457, Benzyl {[3-({5-[3-amino-2,6-dioxo-4-(trifluoromethyl)-3,6-dihydropyrimidin-1(2H)-yl]-2-chloro-4-fluorophenyl}sulfanyl)pyridin-2-yl]oxy}acetate]
100%: pest or weed control at 5 g/ha (Amaranthus retroflexus; Amaranthus retroflexus, 504 h, application rate 5 g/ha, read-out: Amaranthus retroflexus (efficacy in %)) | pest or weed control at 20 g/ha (Amaranthus retroflexus; Amaranthus retroflexus, 504 h, application rate 20 g/ha, read-out: Amaranthus retroflexus (efficacy in %)) | pest or weed control at 5 g/ha (Setaria viridis; application rate 5 g/ha) | pest or weed control at 20 g/ha (Setaria viridis; application rate 20 g/ha) | pest or weed control at 5 g/ha (Polygonum convolvulus; application rate 5 g/ha) | pest or weed control at 20 g/ha (Polygonum convolvulus; application rate 20 g/ha) | pest or weed control at 5 g/ha (Veronica persica; Veronica persica, 504 h, application rate 5 g/ha, read-out: Veronica persica (efficacy in %)) | pest or weed control at 20 g/ha (Veronica persica; Veronica persica, 504 h, application rate 20 g/ha, read-out: Veronica persica (efficacy in %)) | pest or weed control at 5 g/ha (Digitaria sanguinalis; application rate 5 g/ha) | pest or weed control at 20 g/ha (Digitaria sanguinalis; application rate 20 g/ha) | pest or weed control at 20 g/ha (Echinochloa crus-galli; Echinochloa crus-galli, 504 h, application rate 20 g/ha, read-out: Echinochloa crus-galli (efficacy in %)) | pest or weed control at 5 g/ha (Pharbitis purpurea; Ipomoea purpurea, 504 h, application rate 5 g/ha, read-out: Pharbitis purpurea (efficacy in %)) | pest or weed control at 20 g/ha (Pharbitis purpurea; Ipomoea purpurea, 504 h, application rate 20 g/ha, read-out: Pharbitis purpurea (efficacy in %)) | pest or weed control at 5 g/ha (Viola tricolor; Viola tricolor, 504 h, application rate 5 g/ha, read-out: Viola tricolor (efficacy in %)) | pest or weed control at 20 g/ha (Viola tricolor; Viola tricolor, 504 h, application rate 20 g/ha, read-out: Viola tricolor (efficacy in %)) | pest or weed control at 5 g/ha (Abutilon theophrasti; Abutilon theophrasti, 504 h, application rate 5 g/ha, read-out: Abutilon theophrasti (efficacy in %)) | pest or weed control at 20 g/ha (Abutilon theophrasti; Abutilon theophrasti, 504 h, application rate 20 g/ha, read-out: Abutilon theophrasti (efficacy in %))
0%: Oryza sativa (efficacy in %) (Oryza sativa; application rate 1.25 g/ha)
80%: Alopecurus myosuroides (efficacy in %) (Alopecurus myosuroides; application rate 5 g/ha) | Alopecurus myosuroides (efficacy in %) (Alopecurus myosuroides; application rate 20 g/ha) | Avena fatua (efficacy in %) (Avena fatua) | pest or weed control at 5 g/ha (Echinochloa crus-galli; Echinochloa crus-galli, 504 h, application rate 5 g/ha, read-out: Echinochloa crus-galli (efficacy in %))
20%: Triticum aestivum (efficacy in %) (Triticum aestivum) | Zea mays (efficacy in %) (Zea mays)
90%: pest or weed control at 20 g/ha (Matricaria inodora; Tripleurospermum inodorum, 504 h, application rate 20 g/ha, read-out: Matricaria inodora (efficacy in %))

Nn1c(C(F)(F)F)cc(=O)n(-c2cc(Sc3cccnc3OCC(=O)O)c(Cl)cc2F)c1=O [I.1-481]
100%: Alopecurus myosuroides (efficacy in %) (Alopecurus myosuroides; application rate 5 g/ha) | Alopecurus myosuroides (efficacy in %) (Alopecurus myosuroides; application rate 20 g/ha) | Amaranthus retroflexus (efficacy in %) (Amaranthus retroflexus; application rate 5 g/ha) | Amaranthus retroflexus (efficacy in %) (Amaranthus retroflexus; application rate 20 g/ha) | Veronica persica (efficacy in %) (Veronica persica; application rate 5 g/ha) | Veronica persica (efficacy in %) (Veronica persica; application rate 20 g/ha) | Echinochloa crus-galli (efficacy in %) (Echinochloa crus-galli; application rate 20 g/ha) | Pharbitis purpurea (efficacy in %) (Pharbitis purpurea; application rate 20 g/ha) | Matricaria inodora (efficacy in %) (Matricaria inodora; application rate 20 g/ha) | Viola tricolor (efficacy in %) (Viola tricolor; application rate 5 g/ha) | Viola tricolor (efficacy in %) (Viola tricolor; application rate 20 g/ha) | Abutilon theophrasti (efficacy in %) (Abutilon theophrasti; application rate 5 g/ha) | Abutilon theophrasti (efficacy in %) (Abutilon theophrasti; application rate 20 g/ha)
80%: Pharbitis purpurea (efficacy in %) (Pharbitis purpurea; application rate 5 g/ha) | Lolium rigidum (efficacy in %) (Lolium rigidum)
10%: Oryza sativa (efficacy in %) (Oryza sativa; application rate 1.25 g/ha)
20%: Triticum aestivum (efficacy in %) (Triticum aestivum) | Oryza sativa (efficacy in %) (Oryza sativa; application rate 5 g/ha)
90%: Echinochloa crus-galli (efficacy in %) (Echinochloa crus-galli; application rate 5 g/ha) | Matricaria inodora (efficacy in %) (Matricaria inodora; application rate 5 g/ha)
